Each structure is given as a SMILES string. Bounds are passed on as bounds.

In test [1] the target is T1, IDH1^R132H (Homo sapiens, UniProt O75874, R132H). The test is described as follows: Enzyme activity inhibition assay (fluorescence-based), IDH1 R132H. It is filed as biochemical. As for the experimental part:
The inhibitory ability of the compounds on the enzyme activities of IDH1^R132H and IDH2^R140Qwas detected and expressed as the half inhibitory concentration (IC50) value. AG-881 was used as a positive control compound. In this experiment, compounds were screened on enzymes IDH1^R132H and IDH2^R140Q using a fluorescence-based method (initial concentration: 10000 nM, 3-fold dilution, 10 concentrations, and single-well detection). • (1) Preparation of 1×assay buffer. • (2) Preparation of compound concentration gradient: the compounds to be tested were assayed at an initial concentration of 10000 nM, with 3-fold dilution and 10 concentrations, and diluted into 200-fold the final concentration in 100% DMSO solution in a 384-well plate. • (3) 250 nL of DMSO and 250 nL of diluted compounds were transferred to a reaction plate with Echo 550. • (4) IDH2^R140Q enzyme detection: 25 μL of an IDH2^R140Q enzyme solution was added, and the mixture was incubated for 60 minutes; then 25 μL of a substrate solution was added, and the mixture was incubated for 150 minutes; then 25 μL of a detection buffer was added, and the mixture was shaken for 1 minute and incubated for 60 minutes; and finally, Synergy 2, Ex544/Em590 cutoff 590 was used for reading. • (5) IDH1^R132H enzyme detection: 40 μL of a mixture solution of an IDH1^R132H enzyme at the 1.25-fold final concentration and NADPH was added, and the mixture was incubated for 60 minutes; then 10 μL of a substrate solution at the 5-fold final concentration was added, and the mixture was incubated for 90 minutes; then 25 μL of a detection buffer at the 3-fold final concentration was added, and the mixture was shaken for 1 minute. and finally, Synergy 2, Ex544/Em590 cutoff 590 was used for reading. • (8) Inhibition rate calculation, formula: % Inhibition=(RFU_sample−RFU_min)/(RFU_max−RFU_min)*100%, wherein RFU-sample represents the fluorescence intensity of a sample; RFU-min represents the average value of negative control wells and represents the fluorescence intensity with an enzyme; and RFU-max represents the average value of positive control wells and represents the fluorescence intensity without an enzyme. The curve fitting was performed using Graphpad Prism software to obtain IC50 values, and the test results were as shown in table 2.

The target in test [2] is T1, IDH1^R132H. In words: 2-HG assay in cells (U87 cell line stably transfected with IDH1-R132H). It is filed as cell-based. As to conditions: 72 hours, read-out: 2-HG in medium (IC50, nM) (IDH1^R132H). As for the experimental part: The compounds were detected for the inhibition of 2-HG production in the U87 cell line stably transfected with IDH1-R132H and the culture supernatant of TF-1 cells stably transfected with IDH2-R140Q. • (1) The cultured cells were collected by centrifugation, then suspended in a cell culture solution, counted, and seeded in a 96-well cell culture plate at 160 μL of cell suspension/well (20000 cells/well for U87-IDH1-R132H; 10000 cells/well for TF-1-IDH2-R140Q). • (2) A 96-well plate dilution was taken, and the compounds to be tested were diluted in a gradient manner in DMSO and a cell culture solution; and then 40 μL of the gradient-diluted compounds to be tested were added to the 96-well plate on which cells have been plated. […] Finally, the plate was cultured in a 37° C. incubator containing 5% CO2. • (3) After the compounds were incubated with the cells for 72 hours, the cell culture plate was taken out and centrifuged at 1500 rpm for 5 minutes, and then 100 μL of the medium supernatant was aspirated for 2-HG detection. • (4) 2-HG detection: the cell supernatant was diluted with purified water, 30 μL of the diluted sample was taken into a 1.5 ml centrifuge tube, and 200 μL of the internal standard solution was added. The mixture was mixed uniformly by vortex and centrifuged at 3200 rpm at 4° C. for 15 minutes. 100 μL of the supernatant solution was diluted with water at a 1:1 ratio and then detected by LC-MS. Analyte Peak Area was used to represent the 2-HG levels. • (5) Inhibition rate calculation, formula: % Inhibition=(1−Analyte Peak Area_sample/Analyte Peak Area_max)*100%, wherein Analyte Peak Area_sample represents the Analyte Peak Area of the sample to which the compound was added; Analyte Peak Area_max represents the average value of Analyte Peak Area of positive control wells (representing the absence of the compound). The curve fitting was performed using Graphpad Prism software to obtain IC50 values, and the test results were as shown in table 2.

T1 sequence (O75874 whole entry R132H): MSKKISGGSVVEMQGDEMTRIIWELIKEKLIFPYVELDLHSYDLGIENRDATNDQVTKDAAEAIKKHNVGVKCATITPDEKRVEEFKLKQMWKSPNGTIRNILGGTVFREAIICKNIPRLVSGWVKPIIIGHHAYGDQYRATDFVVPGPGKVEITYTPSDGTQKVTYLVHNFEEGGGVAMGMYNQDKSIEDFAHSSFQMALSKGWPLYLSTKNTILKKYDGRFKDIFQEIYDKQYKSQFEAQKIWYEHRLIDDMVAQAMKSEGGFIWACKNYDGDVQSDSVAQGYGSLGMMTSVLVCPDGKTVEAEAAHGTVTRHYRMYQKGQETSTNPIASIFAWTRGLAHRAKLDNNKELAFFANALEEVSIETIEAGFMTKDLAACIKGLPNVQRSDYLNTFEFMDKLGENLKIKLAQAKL

In the case of `C[C@@H](Nc1nc(N[C@H](C)C(F)(F)F)nc(-c2cc(F)c(O)c(Cl)n2)n1)C(F)(F)F` [Example 10, 6-(4,6-bis(((R)-1,1,1-trifluoroprop-2-yl)amine)-1,3,5-triazin-2-yl)-2-chloro-4-fluoropyridin-3-ol], the values for the half-inhibitory concentration (IC50) on IDH1^R132H [1] (class symbols) and at IDH1^R132H [2] (class symbols) were above 1000 nM and 100 to 1000 nM, respectively.

Turning to `C=Cc1cc(-c2nc(N[C@H](C)C(F)(F)F)nc(N[C@H](C)C(F)(F)F)n2)nc(Cl)c1N` [Example 9, 6-(5-amino-6-chloro-4-vinylpyridin-2-yl)-N^2,N^4-bis((R)-1,1,1-trifluoropropyl-2-yl)-1,3,5-triazine-2,4-diamine], the IC50 at IDH1^R132H [1] (class symbols) and on IDH1^R132H [2] (class symbols) was above 1000 nM each time.

As to `C[C@@H](Nc1nc(N[C@H](C)C(F)(F)F)nc(-c2cc(Cl)c(N(C)C)c(Cl)n2)n1)C(F)(F)F` [Example 21, 6-(4,6-dichloro-5-dimethylaminopyridin-2-yl)-N^2,N^4-bis((R)-1,1,1-trifluoroprop-2-yl)-1,3,5-triazine-2,4-diamine], the IC50 (as a rule, the concentration at which inhibition is half-maximal) at IDH1^R132H [1] (class symbols) is 100 to 1000 nM.

Regarding `C[C@@H](Nc1nc(N[C@H](C)C(F)(F)F)nc(-c2cc(F)c(Cl)c(Cl)n2)n1)C(F)(F)F` [Example 17, 6-(5,6-dichloro-4-fluoropyridin-2-yl)-N^2,N^4-bis((R)-1,1,1-trifluoroprop-2-yl)-1,3,5-triazine-2,4-diamine], the IC50 at IDH1^R132H [1] (class symbols) and on IDH1^R132H [2] (class symbols) was at most 50 nM each time.

As for `C[C@@H](Nc1nc(N[C@H](C)C(F)(F)F)nc(-c2cc(Br)c(N)c(Cl)n2)n1)C(F)(F)F` [Example 6, 6-(5-amino-4-bromo-6-chloropyridin-2-yl)-N^2,N^4-bis((R)-1,1,1-trifluoropropyl-2-yl)-1,3,5-triazine-2,4-diamine], the IC50 on IDH1^R132H [1] (class symbols) is 100 to 1000 nM; on IDH1^R132H [2] (class symbols), 50 to 100 nM.

With `C[C@@H](Nc1nc(N[C@H](C)C(F)(F)F)nc(-c2cc(F)c(N)c(C(F)(F)F)n2)n1)C(F)(F)F` [Example 13, 6-(5-amino-4-fluoro-6-(trifluoromethyl)pyridin-2-yl)-N^2,N^4-bis((R)-1,1,1-trifluoroprop-2-yl)-1,3,5-triazine-2,4-diamine], the half-inhibitory concentration (IC50) was above 1000 nM at IDH1^R132H [1] (class symbols) and 100 to 1000 nM on IDH1^R132H [2] (class symbols).

Regarding `C[C@@H](Nc1nc(N[C@H](C)C2CC2)nc(-c2cc(F)c(N)c(Cl)n2)n1)C1CC1` [Example 11, 6-(5-amino-6-chloro-4-fluoropyridin-2-yl)-N^2,N^4-bis((R)-1-cyclopropylethyl)-1,3,5-triazine-2,4-diamine], the results for the IC50 at IDH1^R132H [1] (class symbols) and at IDH1^R132H [2] (class symbols) were above 1000 nM and 100 to 1000 nM, respectively.

`COc1cc(-c2nc(N[C@H](C)C(F)(F)F)nc(N[C@H](C)C(F)(F)F)n2)nc(Cl)c1N` [Example 3, 6-(5-amino-6-chloro-4-methoxypyridin-2-yl)-N^2,N^4-bis((R)-1,1,1-trifluoroprop-2-yl)-1,3,5-triazine-2,4-diamine]: the IC50 at IDH1^R132H [1] (class symbols) and on IDH1^R132H [2] (class symbols) was above 1000 nM in each case.

`C[C@@H](Nc1nc(N[C@H](C)C(F)(F)F)nc(-c2cc(OC(F)F)c(N)c(Cl)n2)n1)C(F)(F)F` [Example 22, 6-(5-amino-6-chloro-4-(difluoromethoxy)pyridin-2-yl)-N^2,N^4-bis((R)-1,1,1-trifluoropropyl-2-yl)-1,3,5-triazine-2,4-diamine]: on IDH1^R132H [1] (class symbols), the IC50 was above 1000 nM.

On to `C[C@@H](Nc1nc(N[C@H](C)C(F)(F)F)nc(-c2nc(Cl)c(N)cc2F)n1)C(F)(F)F` [Example 4, 6-(5-amino-6-chloro-3-fluoropyridin-2-yl)-N^2,N^4-bis((R)-1,1,1-trifluoroprop-2-yl)-1,3,5-triazine-2,4-diamine], for which the IC50 at IDH1^R132H [1] (class symbols) and on IDH1^R132H [2] (class symbols) was above 1000 nM in each case.

As for `C[C@@H](Nc1nc(N[C@H](C)C(F)(F)F)nc(-c2cc(C(F)(F)F)c(N)c(Cl)n2)n1)C(F)(F)F` [Example 25, 6-(6-chloro-5-amino-4-(trifluoromethyl)pyridin-2-yl)-N^2,N^4-bis((R)-1,1,1-trifluoropropyl-2-yl)-1,3,5-triazine-2,4-diamine], the IC50 on IDH1^R132H [1] (class symbols) and at IDH1^R132H [2] (class symbols) was 100 to 1000 nM each time.

Consider `CNc1c(Cl)cc(-c2nc(N[C@H](C)C(F)(F)F)nc(N[C@H](C)C(F)(F)F)n2)nc1Cl` [Example 20, 6-(4,6-dichloro-5-methylaminopyridin-2-yl)-N^2,N^4-bis((R)-1,1,1-trifluoroprop-2-yl)-1,3,5-triazine-2,4-diamine], for which the IC50 at IDH1^R132H [1] (class symbols) is above 1000 nM.

Consider `C[C@@H](Nc1nc(N[C@H](C)C(F)(F)F)nc(-c2ccc(N)c(Cl)n2)n1)C(F)(F)F` [Example 2], for which the IC50 came to 22 nM on IDH1^R132H [1] (numeric values) and 17 nM at IDH1^R132H [2] (numeric values).

Consider `Nc1c(F)cc(-c2nc(NC3CC(F)(F)C3)nc(NC3CC(F)(F)C3)n2)nc1Cl` [Example 12, 6-(5-amino-6-chloro-4-fluoropyridin-2-yl)-N^2,N^4-bis(3,3-difluorocyclobutyl)-1,3,5-triazine-2,4-diamine], for which the half-inhibitory concentration (IC50) at IDH1^R132H [1] (class symbols) and at IDH1^R132H [2] (class symbols) was at most 50 nM throughout.

The record behind these values is US20250051301A1, “MUTANT IDH1 AND IDH2 INHIBITOR AND APPLICATION THEREOF” (Betta Pharmaceuticals Co., Ltd, priority 2022, published 2025).
